Tests used:
[1] = system: LPS induced IL-6 (Interleukin-6) production; assay: LPS (lipopolysaccharide) induced IL-6 production mouse assay; details: CD1 mouse strain; oral administration one hour before LPS 2.5 mg/kg i.p.; serum IL-6 2 hours after LPS; p < 0.05
Experimental: Compounds of the Examples listed in Table 2 were assayed for their ability to inhibit LPS (lipopolysaccharide) induced IL-6 (Interleukin-6) production in mice. Fox Chase SCID® female mice (Charles Rivers Labs, 8 per group) or CD1 female mice received an intraperitoneal challenge of lipopolysaccharide (2.5 mg/kg, L2630 E. coli 0111:B4) one hour after oral administration of compounds. Mice were euthanized 2 hours after lipopolysaccharide injection, blood was removed by cardiac puncture, and then the serum harvested from the blood samples was frozen at −80° C. On the day of the assay the serum samples were brought to room temperature and then diluted 1:20 in phosphate-buffered saline containing 2% bovine serum albumin. Interleukin-6 measurements were performed using a cytokine assay from Meso Scale Discovery (Gaithersburg, Md.) for mouse serum analysis according to the manufacturer's protocol and read on a SECTOR Imager 6000 (Meso Scale Discovery, Gaithersburg, Md.) instrument. Statistical analysis was performed using Prism software (version 5.0) incorporating Dunnett's one way ANOVA. The IL-6 mean and standard deviation of the group of vehicle treated animals were compared with the IL-6 mean and standard deviation of the group treated with drug.

[2] = system: breast cancer cell line MX-1; assay: MX-1 cell line proliferation assay (3-day, Cell Titer Glo); assay type: cell-based; details: Homo sapiens, MX1, MX-1 cells, 72 hours, read-out: Cellular proliferation: EC50
Summary of the method: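 MX-1 cells plated at 5000 cells/well and adhered overnight at 37°, then treated for 3 days with 10-point 3-fold dilutions (final top 3 or 1 μM). Viability by Cell Titer Glo luminescence normalized to DMSO-treated cells; EC50 from sigmoidal curve fit.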

BRD4 (BDI-BDII_K57-K550) = BRD4 (BDI-BDII_K57-K550) (Homo sapiens, UniProt O60885); assay: TR-FRET bromodomain binding assay; details: His-tagged tandem bromodomain, Alexa647-labeled probe; Ki calculated from IC50s, probe Kd and probe concentration

SMILES | Inhibition of LPS induced IL-6 production, % inhibition [1] [%] | EC50 [2] [nM] | Ki (BRD4 (BDI-BDII_K57-K550)) [nM]
CCS(=O)(=O)c1ccc2c(c1)-c1cn(C)c(=O)cc1OCCCCc1cc(F)cc(F)c1O2 [Example A-20, 17-(ethylsulfonyl)-11,13-difluoro-2-methyl-6,7,8,9-tetrahydrodibenzo[4,5:7,8][1,6]dioxacyclododecino[3,2-c]pyridin-3(2H)-one] | 81 | 8.69 | 1.25
CCS(=O)(=O)Nc1cnc2c(c1)-c1cn(C)c(=O)cc1OCCCCc1cc(Cl)ccc1O2 [Example A-33, N-(11-chloro-2-methyl-3-oxo-2,3,6,7,8,9-hexahydrobenzo[11,12][1,6]dioxacyclododecino[2,3-b:4,5-c′]dipyridin-17-yl)ethanesulfonamide] | 74 | 5.68 | 1.45
Cn1cc2c(cc1=O)OCCCCc1cc(Cl)ccc1Oc1ccc(CS(C)(=O)=O)cc1-2 [Example A-36, 11-chloro-2-methyl-17-((methylsulfonyl)methyl)-6,7,8,9-tetrahydrodibenzo[4,5:7,8][1,6]dioxacyclododecino[3,2-c]pyridin-3(2H)-one] | 68 | 19.2 | 2.85
CCN1CCOc2cc(=O)n(C)cc2-c2cc(NS(=O)(=O)CC)ccc2Oc2ccc(Cl)cc2C1 [Example B-1, N-(11-chloro-8-ethyl-2-methyl-3-oxo-2,3,6,7,8,9-hexahydrodibenzo[f,i]pyrido[3,4-k][1,8,4]dioxazacyclododecin-17-yl)ethanesulfonamide] | 43 | 8.77 | 15.1
CCS(=O)(=O)Nc1ccc2c(c1)-c1cn(C)c(=O)cc1OCCOCc1cc(Cl)ccc1O2 [Example B-5, N-(11-chloro-2-methyl-3-oxo-2,3,6,7-tetrahydro-9H-dibenzo[6,7:9,10][1,4,8]trioxacyclododecino[11,12-c]pyridin-17-yl)ethanesulfonamide] | 61 | 2.79 | 1.19

Reference: patent publication US9994581B2, “Bromodomain inhibitors” (AbbVie Inc., priority 2013, dated 2018)
